Consider 35 molecules from ChEMBL document CHEMBL3603802, “Design and synthesis of new non nucleoside inhibitors of DNMT3A” (Bioorg Med Chem, 2015).

Data set [1] has as its target T1, DNA (cytosine-5)-methyltransferase 3A (Homo sapiens, UniProt Q9Y6K1). Kind of data set: Inhibition of human C-terminal DNMT3A at 20 uM after 1 hr by fluorescence assay.
Data set [2] concerns the target T1, DNA (cytosine-5)-methyltransferase 3A. Kind of data set: Inhibition of human C-terminal DNMT3A at 32 uM after 1 hr by fluorescence assay.
A short description of data set [3]: Antiproliferative activity against human KG1 cells after 2 to 4 days by ATPlite 1step luminescence assay. In kind it is functional, cell-based. The following applies: KG-1.
Data set [4] is described as follows: Antiproliferative activity against human KARPAS299 cells after 2 to 4 days by ATPlite 1step luminescence assay. The note with it: KARPAS-299. It is filed as functional, cell-based. (ATP-based viability assays read luminescence as a measure of living cells.)
The next data set deals with HCT-116. Kind of data set: Antiproliferative activity against human HCT116 cells after 2 to 4 days by ATPlite 1step luminescence assay. In kind it is functional, cell-based.
The target of data set [5] is T1, DNA (cytosine-5)-methyltransferase 3A. As to the kind of experiment: Inhibition of human C-terminal DNMT3A after 1 hr by fluorescence assay.
Data set [6] is described as follows: Chemical stability of the compound after 30 mins by LC-MS analysis in presence of glutathione. It is filed as physicochemical. The note with it: 0.5 h.
Data set [7] in a line: Chemical stability of the compound in DMSO by HPLC analysis. In kind it is physicochemical.
Data set [8] deals with DNA (cytosine-5)-methyltransferase 1 (Homo sapiens) (UniProt P26358). As to the kind of experiment: Inhibition of human His-DNMT1 using [methyl-3H]SAM as substrate at 100 uM after 2 hrs.
DNA (cytosine-5)-methyltransferase 1 (Homo sapiens), sequence (P26358 whole entry): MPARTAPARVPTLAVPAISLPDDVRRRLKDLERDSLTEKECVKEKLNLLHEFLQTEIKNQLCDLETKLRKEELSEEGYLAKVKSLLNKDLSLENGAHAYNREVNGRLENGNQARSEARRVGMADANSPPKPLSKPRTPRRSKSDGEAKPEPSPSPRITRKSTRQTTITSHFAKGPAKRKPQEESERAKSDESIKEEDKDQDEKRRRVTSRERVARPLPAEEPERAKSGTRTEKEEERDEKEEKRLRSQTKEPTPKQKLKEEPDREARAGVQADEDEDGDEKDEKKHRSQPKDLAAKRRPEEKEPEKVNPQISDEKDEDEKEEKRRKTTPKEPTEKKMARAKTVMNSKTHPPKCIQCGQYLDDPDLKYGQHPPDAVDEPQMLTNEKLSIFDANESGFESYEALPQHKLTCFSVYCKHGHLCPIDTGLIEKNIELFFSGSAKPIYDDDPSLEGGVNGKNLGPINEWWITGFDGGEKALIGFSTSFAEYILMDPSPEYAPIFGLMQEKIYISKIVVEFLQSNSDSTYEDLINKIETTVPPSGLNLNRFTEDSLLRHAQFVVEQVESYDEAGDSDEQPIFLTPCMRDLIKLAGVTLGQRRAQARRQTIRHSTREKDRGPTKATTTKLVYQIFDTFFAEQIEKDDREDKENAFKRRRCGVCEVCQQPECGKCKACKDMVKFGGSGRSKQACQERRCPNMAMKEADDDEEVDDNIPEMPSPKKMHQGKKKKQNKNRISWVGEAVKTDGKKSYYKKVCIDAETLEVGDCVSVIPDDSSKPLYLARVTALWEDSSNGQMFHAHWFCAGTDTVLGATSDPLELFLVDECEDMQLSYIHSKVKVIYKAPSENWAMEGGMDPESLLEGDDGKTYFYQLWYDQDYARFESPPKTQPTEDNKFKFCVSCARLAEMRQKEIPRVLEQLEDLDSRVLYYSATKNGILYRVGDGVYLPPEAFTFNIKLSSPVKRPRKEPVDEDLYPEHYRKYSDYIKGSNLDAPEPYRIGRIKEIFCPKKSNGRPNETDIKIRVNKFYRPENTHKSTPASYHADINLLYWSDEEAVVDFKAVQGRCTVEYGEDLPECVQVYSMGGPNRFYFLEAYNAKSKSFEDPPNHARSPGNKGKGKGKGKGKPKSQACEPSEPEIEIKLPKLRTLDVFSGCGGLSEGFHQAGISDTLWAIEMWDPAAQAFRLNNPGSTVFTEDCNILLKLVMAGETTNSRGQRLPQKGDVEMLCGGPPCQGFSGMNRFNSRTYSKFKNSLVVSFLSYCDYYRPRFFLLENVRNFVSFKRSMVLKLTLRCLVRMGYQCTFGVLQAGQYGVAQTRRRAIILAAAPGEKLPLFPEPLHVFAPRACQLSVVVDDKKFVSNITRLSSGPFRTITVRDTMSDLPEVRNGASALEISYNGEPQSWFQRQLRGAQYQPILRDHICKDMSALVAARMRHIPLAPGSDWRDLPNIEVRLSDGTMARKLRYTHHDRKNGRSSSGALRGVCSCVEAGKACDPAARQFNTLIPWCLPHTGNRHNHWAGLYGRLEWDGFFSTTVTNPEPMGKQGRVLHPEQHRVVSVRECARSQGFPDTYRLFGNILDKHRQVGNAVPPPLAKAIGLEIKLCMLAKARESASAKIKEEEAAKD
For data set [9] the target is unchanged. As to the kind of experiment: Inhibition of human His-DNMT1 using [methyl-3H]SAM as substrate at 32 uM after 2 hrs.

The term inhibition denotes how much of the control response was suppressed. A high value points to a response far below the control. The term EC50 denotes the concentration needed to bring the measured effect to its halfway point. A lower EC50 goes with a more potent agent.

T1 sequence (Q9Y6K1 whole entry, looked up): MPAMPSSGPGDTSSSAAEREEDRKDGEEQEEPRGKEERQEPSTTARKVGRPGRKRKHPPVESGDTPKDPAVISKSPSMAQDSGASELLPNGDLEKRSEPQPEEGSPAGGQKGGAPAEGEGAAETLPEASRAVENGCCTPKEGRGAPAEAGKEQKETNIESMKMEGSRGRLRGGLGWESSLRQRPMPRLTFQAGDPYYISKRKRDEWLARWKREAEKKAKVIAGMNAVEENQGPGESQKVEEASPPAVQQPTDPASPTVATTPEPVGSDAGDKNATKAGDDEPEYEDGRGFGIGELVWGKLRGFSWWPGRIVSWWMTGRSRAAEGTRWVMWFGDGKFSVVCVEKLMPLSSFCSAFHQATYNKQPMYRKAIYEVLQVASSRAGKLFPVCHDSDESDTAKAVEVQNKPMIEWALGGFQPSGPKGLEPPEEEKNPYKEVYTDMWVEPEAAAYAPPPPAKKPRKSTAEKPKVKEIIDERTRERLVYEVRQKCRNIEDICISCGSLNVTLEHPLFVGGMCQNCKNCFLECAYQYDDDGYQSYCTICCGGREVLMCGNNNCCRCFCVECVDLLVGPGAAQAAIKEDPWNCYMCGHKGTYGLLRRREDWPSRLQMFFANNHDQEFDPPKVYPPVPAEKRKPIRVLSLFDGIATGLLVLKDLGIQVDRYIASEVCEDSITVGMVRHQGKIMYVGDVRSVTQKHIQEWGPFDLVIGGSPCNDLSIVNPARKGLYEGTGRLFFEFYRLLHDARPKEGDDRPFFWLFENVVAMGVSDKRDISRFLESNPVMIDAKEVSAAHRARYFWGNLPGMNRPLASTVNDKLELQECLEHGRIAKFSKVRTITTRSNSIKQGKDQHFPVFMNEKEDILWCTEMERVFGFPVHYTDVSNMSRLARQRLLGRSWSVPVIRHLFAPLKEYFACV

`CCOC(c1ccc(Cl)cc1)C(CSCC)n1cnc2ccccc21` (stereo unspecified) registered an inhibition in data set [1] of 9%. On the same count and under the same terms, then `CCSCC(Cn1cccn1)C(=O)c1ccc(Cl)cc1` (stereo unspecified), with 18%. Consider `CCSCC(C(=O)c1ccc(Cl)cc1)n1cnc2ncnc(N)c21` (stereo unspecified), for which the inhibition in data set [2] was found to be 54%. Same read-out and setting: then `O=C(c1ccc(Cl)cc1)C(CSCc1cccc([N+](=O)[O-])c1)n1cnc2ccccc21` (stereo unspecified), with 40%; and `O=C(c1ccc(Cl)cc1)C(CSCC1CCCC1)n1cnc2ccccc21` (stereo unspecified), with 36%. As to `CCSCC(C(=O)c1ccc(OC)cc1)n1cnc2ccccc21` (stereo unspecified), in [2], the inhibition came out at 0%. The EC50 (in data set [3]; in data set [4]; in the data set on HCT-116) was greater than 10 µM in each case. Turning to `CCSCC(C(=O)c1ccc(Cl)cc1)n1cccn1` (stereo unspecified), the inhibition in data set [1] worked out at 17%. `CCSCC(C(=O)c1ccc(Cl)c(Cl)c1)n1cnc2ccccc21` (stereo unspecified) came in with an inhibition in [2] of 38%. Further, the results for the EC50 (in [3]; in [4]; in the data set on HCT-116) were 3.7 µM, greater than 10 µM and 3.1 µM, respectively.

As for `O=C(c1ccc(Cl)cc1)C(SC1CCCCC1)n1cnc2ccccc21` (stereo unspecified), the inhibition in data set [1] turned out to be 21%.

In the case of `O=C(c1ccc(Cl)cc1)C(CSCc1ccccc1)n1cnc2ccccc21` (stereo unspecified), the inhibition in data set [1] was 69%; in data set [2], 25%.

`O=C(Cn1cnc2ccccc21)c1ccc(Cl)cc1` came in with an inhibition in data set [2] of 12%. Take `Cc1cc(Nc2ccc(NC(=O)c3ccc(Nc4ccnc5ccccc45)cc3)cc2)nc(N)n1`: the values for the EC50 (in data set [3]; in data set [4]; in the data set with HCT-116) were 4.4 µM, 1.8 µM and greater than 10 µM, respectively. Consider `C=C(C(=O)c1ccc(Cl)cc1)n1cnc2ccccc21`, for which, in data set [5], a half-maximal effect (EC50) was put at 4 µM. In [2], the inhibition came out at 81%. Besides, in data set [6], the Stability result is listed as “Unstable”. `O=C(c1ccc(Cl)cc1)C(CSC1CCCCC1)n1cnc2ccccc21` (stereo unspecified): the inhibition in data set [1] amounted to 44%. The molecule `O=C(c1ccc(Cl)cc1)C(CSCc1ncccn1)n1cnc2ccccc21` (stereo unspecified) came in with an inhibition in data set [2] of 43%. Regarding `CC(C)SCC(C(=O)c1ccc(Cl)cc1)n1cnc2ccccc21` (stereo unspecified), the inhibition in [1] was 43%.

The molecule `CCOCC(C(=O)c1ccc(Cl)cc1)n1cnc2ccccc21` (stereo unspecified) came in with an inhibition in data set [2] of 63%. In the case of `CC(C)(C)SC(C(=O)c1ccc(Cl)cc1)n1cnc2ccccc21` (stereo unspecified), the inhibition in [1] stood at 10%. As to `CN(C)/C=C(/C(=O)c1ccc(Cl)cc1)n1cnc2ccccc21`, the inhibition in [2] turned out to be 0%. In addition, in [7], the Stability result is on record as “Stable”. In the case of `CCSC(C(=O)c1ccc(Cl)cc1)n1cnc2ccccc21` (stereo unspecified), the inhibition in [1] came to 15%. For the molecule `CCSCC(Cn1cnc2ccccc21)C(=O)c1ccc(Cl)cc1` (stereo unspecified), the inhibition in [1] is 23%. Still for that read-out and setting: then `CCSCC(C(OC)c1ccc(Cl)cc1)n1cnc2ccccc21` (stereo unspecified), with 5%.

In turn, `CCSCC(C(=O)c1ccccc1)n1cnc2ccccc21` (stereo unspecified) displayed an inhibition in data set [2] of 34%. In the case of `O=C(/C(=C/C=C/c1ccccc1)n1cnc2ccccc21)c1ccc(Cl)cc1`, the inhibition in data set [2] was 0%. The Stability entry in data set [7] is reported as “Stable”.

`O=C(c1ccc(Cl)cc1)C(CSc1ncc[nH]1)n1cnc2ccccc21` (stereo unspecified) came in with an inhibition in [2] of 38%. The molecule `CCOCC(C(=O)c1ccc(Cl)cc1)n1cnc2ncnc(N)c21` (stereo unspecified) came in with an EC50 in [5] of 2.1 µM. The inhibition in data set [2] amounted to 70%; in [8] it was 29%. Further, in data set [7], the Stability result is “Unstable”. Consider `CCSCC(C(=O)c1ccc(Cl)cc1)n1cnc2ccccc21` (stereo unspecified), for which the EC50 in [5] is 3 µM. The inhibition in data set [1] amounted to 70%; in [2] it was 45%; in [9], 70%; in [8], 22%. For the same molecule, in data set [7], the Stability entry is “Unstable”. `CC(C)SC(C(=O)c1ccc(Cl)cc1)n1cnc2ccccc21` (stereo unspecified) came in with an inhibition in [1] of 5%. `O=C(c1ccc(Cl)cc1)C(CSCc1ccco1)n1cnc2ccccc21` (stereo unspecified) yielded an inhibition in data set [2] of 55%. In turn, `CCSCC(C(=O)c1ccc(Cl)cc1)n1ccnc1` (stereo unspecified) registered an inhibition in data set [1] of 43%. Same read-out and setting: then `CCSCC(Cn1ccnc1)C(=O)c1ccc(Cl)cc1` (stereo unspecified), with 9%. In data set [2], `COc1ccc(CSCC(C(=O)c2ccc(Cl)cc2)n2cnc3ccccc32)cc1` (stereo unspecified) had an inhibition of 34%.

For `CCSCC(C(=O)c1ccc(Cl)cc1)n1cnc2c(N)ncnc21` (stereo unspecified), the inhibition in data set [2] was 0%. In data set [1], `CC(C)(C)SCC(C(=O)c1ccc(Cl)cc1)n1cnc2ccccc21` (stereo unspecified) gave an inhibition of 40%.

In data set [1], `CCSCC(C(O)c1ccc(Cl)cc1)n1cnc2ccccc21` (stereo unspecified) registered an inhibition of 4%.
